In the NIST ThermoML archive (doi:10.1021/je8007759):

Test: xn = mol fraction of the nth substance listed

CC1CCC(=O)O1 (stereo not given) [γ-valerolactone] + O=C=O
mass density [kg/m3], Fluid (supercritical or subcritical phases), Pycnometric method
Details | 322.9 K | 327.9 K
9870 kPa, x1 = 0.01 | 521 | –
9890 kPa, x1 = 0.01 | 526 | –
9920 kPa, x1 = 0.01 | 529 | –
9940 kPa, x1 = 0.01 | 532 | –
9960 kPa, x1 = 0.01 | 535 | –
9980 kPa, x1 = 0.01 | 539 | –
10000 kPa, x1 = 0.01 | 540 | –
10020 kPa, x1 = 0.01 | 542 | –
10050 kPa, x1 = 0.01 | 547 | –
10080 kPa, x1 = 0.01 | 550 | –
10100 kPa, x1 = 0.01 | 554 | –
10110 kPa, x1 = 0.01 | 556 | –
10140 kPa, x1 = 0.01 | 559 | –
10170 kPa, x1 = 0.01 | 563 | –
10200 kPa, x1 = 0.01 | 566 | –
10230 kPa, x1 = 0.01 | 576 | –
10230 kPa, x1 = 0.025 | 673 | –
10240 kPa, x1 = 0.025 | 675 | –
10260 kPa, x1 = 0.01 | 574 | –
10270 kPa, x1 = 0.025 | 679 | –
10290 kPa, x1 = 0.01 | 578 | –
10310 kPa, x1 = 0.025 | 683 | –
10330 kPa, x1 = 0.01 | 582 | –
10370 kPa, x1 = 0.01 | 586 | –
10370 kPa, x1 = 0.025 | 687 | –
10380 kPa, x1 = 0.15 | 939 | –
10400 kPa, x1 = 0.01 | 590 | –
10430 kPa, x1 = 0.01 | 594 | –
10440 kPa, x1 = 0.025 | 692 | –
10470 kPa, x1 = 0.01 | 598 | –
10470 kPa, x1 = 0.025 | 696 | –
10510 kPa, x1 = 0.05 | 766 | –
10520 kPa, x1 = 0.01 | 602 | –
10540 kPa, x1 = 0.025 | 701 | –
10550 kPa, x1 = 0.05 | 769 | –
10570 kPa, x1 = 0.01 | 606 | 497
10600 kPa, x1 = 0.01 | – | 500
10600 kPa, x1 = 0.05 | 771 | –
10610 kPa, x1 = 0.025 | 705 | –
10620 kPa, x1 = 0.01 | 610 | –
10630 kPa, x1 = 0.01 | – | 502
10630 kPa, x1 = 0.1 | 881 | –
10660 kPa, x1 = 0.01 | – | 505
10670 kPa, x1 = 0.025 | 710 | –
10680 kPa, x1 = 0.01 | 615 | –
10690 kPa, x1 = 0.01 | – | 509
10700 kPa, x1 = 0.1 | 882 | –
10720 kPa, x1 = 0.01 | 619 | 511
10720 kPa, x1 = 0.05 | 776 | –
10740 kPa, x1 = 0.01 | – | 514
10750 kPa, x1 = 0.025 | 714 | –
10770 kPa, x1 = 0.01 | – | 517
10770 kPa, x1 = 0.1 | 884 | –
10780 kPa, x1 = 0.01 | 624 | –
10820 kPa, x1 = 0.01 | – | 522
10820 kPa, x1 = 0.025 | 718 | –
10840 kPa, x1 = 0.01 | 629 | –
10840 kPa, x1 = 0.1 | 885 | –
10860 kPa, x1 = 0.05 | 781 | –
10880 kPa, x1 = 0.01 | – | 529
10880 kPa, x1 = 0.15 | 943 | –
10900 kPa, x1 = 0.01 | 633 | –
10910 kPa, x1 = 0.025 | 723 | –
10930 kPa, x1 = 0.01 | – | 535
10980 kPa, x1 = 0.01 | 638 | –
11000 kPa, x1 = 0.1 | 888 | –
11010 kPa, x1 = 0.01 | – | 542
11010 kPa, x1 = 0.05 | 787 | –
11020 kPa, x1 = 0.025 | 727 | –
11040 kPa, x1 = 0.01 | 641 | –
11080 kPa, x1 = 0.01 | – | 549
11090 kPa, x1 = 0.025 | 732 | –
11130 kPa, x1 = 0.01 | – | 554
11160 kPa, x1 = 0.01 | 650 | –
11180 kPa, x1 = 0.05 | 792 | –
11190 kPa, x1 = 0.01 | – | 559
11190 kPa, x1 = 0.025 | 737 | –
11200 kPa, x1 = 0.15 | 945 | –
11230 kPa, x1 = 0.1 | 892 | –
11280 kPa, x1 = 0.01 | – | 567
11290 kPa, x1 = 0.01 | 657 | –
11300 kPa, x1 = 0.025 | – | 661
11310 kPa, x1 = 0.025 | 742 | –
11360 kPa, x1 = 0.025 | – | 665
11380 kPa, x1 = 0.05 | 797 | –
11420 kPa, x1 = 0.01 | – | 578
11420 kPa, x1 = 0.025 | – | 669
11450 kPa, x1 = 0.025 | 747 | –
11480 kPa, x1 = 0.025 | – | 673
11510 kPa, x1 = 0.01 | 667 | 586
11520 kPa, x1 = 0.025 | – | 677
11540 kPa, x1 = 0.025 | 751 | –
11540 kPa, x1 = 0.1 | 897 | –
11580 kPa, x1 = 0.05 | 803 | –
11590 kPa, x1 = 0.025 | – | 682
11600 kPa, x1 = 0.15 | – | 928
11630 kPa, x1 = 0.01 | – | 594
11660 kPa, x1 = 0.025 | – | 686
11700 kPa, x1 = 0.025 | 757 | –
11720 kPa, x1 = 0.05 | – | 759
11730 kPa, x1 = 0.025 | – | 690
11740 kPa, x1 = 0.1 | – | 864
11760 kPa, x1 = 0.15 | 950 | –
11770 kPa, x1 = 0.1 | – | 865
11790 kPa, x1 = 0.01 | – | 606
11800 kPa, x1 = 0.01 | 681 | –
11800 kPa, x1 = 0.025 | – | 694
11800 kPa, x1 = 0.05 | 808 | –
11820 kPa, x1 = 0.025 | 763 | –
11840 kPa, x1 = 0.05 | – | 763
11880 kPa, x1 = 0.1 | – | 867
11890 kPa, x1 = 0.025 | – | 698
11920 kPa, x1 = 0.01 | – | 615
11920 kPa, x1 = 0.15 | – | 931
11970 kPa, x1 = 0.025 | 768 | –
11970 kPa, x1 = 0.05 | – | 768
11980 kPa, x1 = 0.01 | – | 621
11990 kPa, x1 = 0.025 | – | 703
12010 kPa, x1 = 0.1 | 903 | –
12030 kPa, x1 = 0.01 | 691 | –
12050 kPa, x1 = 0.1 | – | 871
12070 kPa, x1 = 0.01 | – | 628
12080 kPa, x1 = 0.05 | 814 | –
12110 kPa, x1 = 0.025 | – | 709
12130 kPa, x1 = 0.025 | 773 | –
12130 kPa, x1 = 0.05 | – | 774
12140 kPa, x1 = 0.15 | 952 | –
12250 kPa, x1 = 0.15 | – | 934
12280 kPa, x1 = 0.025 | – | 716
12300 kPa, x1 = 0.01 | – | 639
12310 kPa, x1 = 0.05 | – | 779
12320 kPa, x1 = 0.05 | 820 | –
12330 kPa, x1 = 0.025 | 778 | –
12520 kPa, x1 = 0.025 | 784 | –
12540 kPa, x1 = 0.1 | 910 | –
12620 kPa, x1 = 0.05 | 826 | –
12660 kPa, x1 = 0.15 | 956 | –
12710 kPa, x1 = 0.025 | 790 | –
12920 kPa, x1 = 0.025 | 795 | –
12960 kPa, x1 = 0.05 | 832 | –
13080 kPa, x1 = 0.1 | 915 | –
13150 kPa, x1 = 0.025 | 801 | –
13170 kPa, x1 = 0.15 | 959 | –
13320 kPa, x1 = 0.05 | 838 | –
13390 kPa, x1 = 0.025 | 806 | –
13570 kPa, x1 = 0.05 | 843 | –
13640 kPa, x1 = 0.025 | 812 | –
13720 kPa, x1 = 0.15 | 962 | –
13790 kPa, x1 = 0.1 | 923 | –
14000 kPa, x1 = 0.05 | 850 | –
14100 kPa, x1 = 0.025 | 821 | –
14230 kPa, x1 = 0.15 | 965 | –
14430 kPa, x1 = 0.05 | 856 | –
14490 kPa, x1 = 0.1 | 929 | –
14840 kPa, x1 = 0.05 | 862 | –
14860 kPa, x1 = 0.15 | 969 | –
14880 kPa, x1 = 0.1 | 932 | –
15440 kPa, x1 = 0.15 | 972 | –
15620 kPa, x1 = 0.05 | 872 | –
15960 kPa, x1 = 0.15 | 975 | –
16660 kPa, x1 = 0.15 | 979 | –
17270 kPa, x1 = 0.15 | 982 | –

mass density [kg/m3], 322.9 K, high pressure variable cell
Details | x1 = 0.01 | x1 = 0.025 | x1 = 0.05 | x1 = 0.1 | x1 = 0.15
Gas | 514 | 672 | 763 | – | –
Liquid | – | – | – | 877 | 936
